Assay results taken from patent US8232287B2, “Pyrimidyl indoline compound” (Daiichi Sankyo Company, Limited, priority 2007, dated 2012).

system: Mice C57/BL6J; assay: Oral glucose tolerance test (oGTT) using mice; type: in vivo; conditions: Mus musculus, 2 h; blood glucose AUC vs vehicle-administered group; fasted male C57/BL6J mice; 1 mg/ml suspension in 0.5% methylcellulose given orally 30 min before oral glucose load; plasma glucose at pre, 15, 30, 60, 120 min; read-out: Rate of decrease in AUC (%)
Procedure: Oral Glucose Tolerance Test (oGTT) Using Mice
2.0 to 8.0 mg of a test compound was weighed and then placed in an agate mortar. While the compound was pulverized, a 0.5% methylcellulose solution was added thereto to prepare a 1 mg/ml suspension. Mice C57/BL6J (6- to 8-week-old male) were purchased from Charles River Laboratories Japan Inc. and raised in a cage until they became 9- to 13-week-old. The mice were fasted after 5 to 6 p.m. of the day before the test. On the test day, blood was collected from the tail vein, and the preceding prepared suspension was orally administered to each of the mice. Thirty minutes after administration, blood was further collected from the tail vein (plasma glucose level in this blood was used as a pre-value), and a 20 to 30% glucose solution was then orally administered thereto at a dose of 10 ml/kg for glucose load. After the glucose load, blood was further collected from the tail vein at time points 15, 30, 60, and 120 minutes. The collected blood was centrifuged to separate plasma. The pre-value and plasma glucose levels at 15, 30, 60, and 120 minutes after the glucose load were measured using Glucoroder GXT (Shino-Test Corp.), and the rate of decrease in blood glucose AUC (%) from a vehicle-administered group was calculated. To this vehicle-administered group, a 0.5% methylcellulose solution was administered instead of the suspension of the compound.

SMILES	inhibition in vivo at 1000 µg/mL
CC(C)(C)OC(=O)N1CCC(Oc2cc(N3CCc4cc(S(=O)(=O)CCF)ccc43)ncn2)CC1 [Example 85, tert-butyl 4-[(6-{5-[(2-fluoroethyl)sulfonyl]indolin-1-yl}pyrimidin-4-yl)oxy]piperidine-1-carboxylate]	27%
CC(C)CC(=O)N1CCC(Oc2cc(N3CCc4cc(S(C)(=O)=O)ccc43)ncn2)CC1 [Example 92, 1-(6-{[1-(3-methylbutanoyl)piperidin-4-yl]oxy}pyrimidin-4-yl)-5-(methylsulfonyl)indoline]	16%
CC(C)OC(=O)N1CC[C@H](Oc2cc(N3CCc4cc(S(C)(=O)=O)ccc43)ncn2)[C@H](F)C1 (relative stereo) [Example 117, isopropyl cis-3-fluoro-4-[6-(5-methanesulfonyl-2,3-dihydro-indol-1-yl)-pyrimidin-4-yloxy]-piperidine-1-carboxylate]	27%
CC(C)OC(=O)N1CCC(Oc2cc(N3CCc4cc(S(C)(=O)=O)ccc43)ncn2)CC1 [Example 2, isopropyl 4-({6-[5-(methylsulfonyl)indolin-1-yl]pyrimidin-4-yl}oxy)piperidine-1-carboxylate]	22%
COc1c(OC2CCN(C(=O)OC(C)C)CC2)ncnc1N1CCc2cc(S(C)(=O)=O)ccc21 [Example 83, isopropyl 4-({5-methoxy-6-[5-(methylsulfonyl)indolin-1-yl]pyrimidin-4-yl}oxy)piperidine-1-carboxylate]	20%
CS(=O)(=O)c1ccc2c(c1)CCN2c1cc(OC2CCN(C(=O)OCC(F)(F)F)CC2)ncn1 [Example 104, 2,2,2-trifluoroethyl 4-({6-[5-(methylsulfonyl)indolin-1-yl]pyrimidin-4-yl}oxy)piperidine-1-carboxylate]	10%
CCS(=O)(=O)c1ccc2c(c1)CCN2c1cc(OC2CCN(C(=O)OCC(F)F)CC2)ncn1 [Example 60, 2,2-difluoroethyl 4-({6-[5-(ethylsulfonyl)indolin-1-yl]pyrimidin-4-yl}oxy)piperidine-1-carboxylate]	22%
CCS(=O)(=O)c1ccc2c(c1)CCN2c1cc(OC2CCN(C(=O)OC(C)C)CC2)ncn1 [Example 31, isopropyl 4-({6-[5-(ethylsulfonyl)indolin-1-yl]pyrimidin-4-yl}oxy)piperidine-1-carboxylate]	20%
CC(C)(C)OC(=O)N1CCC(Oc2cc(N3CCc4cc(S(C)(=O)=O)ccc43)ncn2)CC1 [Example 1, tert-butyl 4-({6-[5-(methylsulfonyl)indolin-1-yl]pyrimidin-4-yl}oxy)piperidine-1-carboxylate]	28%
CS(=O)(=O)c1ccc2c(c1)CCN2c1cc(OC2CCN(C(=O)OCC3CC3)CC2)ncn1 [Example 44, cyclopropylmethyl 4-({6-[5-(methylsulfonyl)indolin-1-yl]pyrimidin-4-yl}oxy)piperidine-1-carboxylate]	18%
C[S+]([O-])c1ccc2c(c1)CCN2c1cc(OC2CCN(C(=O)OCC(F)(F)F)CC2)ncn1 (stereo not drawn) [Example 116, 2,2,2-trifluoroethyl 4-({6-[5-(methylsulfinyl)indolin-1-yl]pyrimidin-4-yl}oxy)piperidine-1-carboxylate]	17%
CCS(=O)(=O)c1ccc2c(c1)CCN2c1cc(OC2CCN(C(=O)OCC(C)C)CC2)ncn1 [Example 22, isobutyl 4-({6-[5-(ethylsulfonyl)indolin-1-yl]pyrimidin-4-yl}oxy)piperidine-1-carboxylate]	21%
C[S+]([O-])c1ccc2c(c1)CCN2c1cc(OC2CCN(C(=O)OCC3CC3)CC2)ncn1 (stereo not drawn) [Example 118, cyclopropylmethyl 4-({6-[5-(methylsulfinyl)indolin-1-yl]pyrimidin-4-yl}oxy)piperidine-1-carboxylate]	16%
C[S+]([O-])c1ccc2c(c1)CCN2c1cc(OC2CCN(C(=O)OC(C)(C)C)CC2)ncn1 (stereo not drawn) [Example 80, tert-butyl 4-({6-[5-(methylsulfinyl)indolin-1-yl]pyrimidin-4-yl}oxy)piperidine-1-carboxylate]	19%
CS(=O)(=O)c1ccc2c(c1)CCN2c1cc(OC2CCN(C(=O)Oc3ccc(F)cc3)CC2)ncn1 [Example 93, 4-fluorophenyl 4-({6-[5-(methylsulfonyl)indolin-1-yl]pyrimidin-4-yl}oxy)piperidine-1-carboxylate]	15%
